Source: patent US4866040A, “Aminocarnitine directed pharmaceutical agents” (priority 1987, dated 1989)
Square brackets hold non-standard residues; d marks the D form. Peptide text beside a SMILES is read from it. Cya = N[CH](CS(=O)(=O)O)C(=O)O

How the values were obtained:
[1] = in vivo, po; cited from earlier work
[2] = system: muscle Ca-activated protease; assay: in-vivo administration, inhibition of muscle Ca-activated protease; set-up: species or system rats; details: for % Inhibition of muscle Ca-activated protease: 2 hours post IP injection
[3] = system: Ca-activated protease; assay: in vitro inhibition of Ca-activated protease; type: biochemical; details: for % of Control (Ca-activated protease activity): in vitro, 100 ug; for % of Control (Ca-activated protease activity) after hydrolysis: 100ug, hydrolysis at 60° C., pH 2
Text: It has been shown that in vitro carnitylleucylargininal inhibits Ca-activated protease as well as leupeptin, viz.

[4] = system: platelet Ca-activated protease; assay: inhibition of platelet Ca-activated protease; type: biochemical; details: final in-vitro conc. 1 mM
Text: The following results were obtained for inhibition of platelet Ca-activated protease: […]

[5] = active transport; cited from earlier work

| Compound | % of Control (Ca-activated protease activity) [3] [%] | % Inhibition of platelet Ca-activated protease [4] [%] | other results |
| --- | --- | --- | --- |
| C[N+](C)(C)C[C@H](N)CC(=O)[O-] [aminocarnitine] | – | – | toxicity when fed orally [1]: non-toxic |
| carnitylleucylargininal | 4.6 | – | % Inhibition of muscle Ca-activated protease ([2]; 19 umoles): 48%; effectiveness per umole relative to leupeptin in inhibiting Ca-activated protease in skeletal muscle ([2]; injected into rats): about ten times more effective per umole |
| carnitylleucylargininal dibutylacetal | – | – | % of Control (Ca-activated protease activity) after hydrolysis ([3]; 0 time): 17%; % of Control (Ca-activated protease activity) after hydrolysis ([3]; 3 hours): 1.2%; % of Control (Ca-activated protease activity) after hydrolysis ([3]; 24 hours): 100% |
| CC(=O)N[C@@H](CC(C)C)C(=O)N[C@@H](CC(C)C)C(=O)N[C@H](C=O)CCCNC(=N)N [leupeptin] | 7.9 | 98 | % Inhibition of muscle Ca-activated protease ([2]; 74 umoles): 20% |
| N[C@@H](CS(=O)(=O)O)C(=O)O [Cysteic acid (CDI treated), cysteic acid] | – | 0 | – |
| CC(C)C[C@H](N)C(=O)N[C@H](C=O)CCCNC(=N)N [leucylargininal, leucyl argininal] | – | 94 | – |
| E-aminoadipic acid [E-aminoadipic acid (CDI treated)] | – | 0 | – |
| C[N+](C)(C)CC(O)CC(=O)[O-] (stereo not shown) [carnitine] | 84 | – | concentration in cardiac and skeletal muscle relative to plasma [5]: 50-100 times |
| CC(C)CC(NC(=O)C(N)CS(=O)(=O)O)C(=O)NC(C=O)CCCNC(=N)N (stereo not drawn) [cysteicleucylargininal] (H-[Cya]-Leu-Arg-aldehyde; configuration not given here) | – | 98 | – |
